This is an account of results in patent US20250082714A1, “METHODS AND COMPOSITIONS FOR THE TREATMENT OR PREVENTION OF MUSCULAR DYSTROPHY” (Stealth BioTherapeutics Inc., priority 2021, published 2025).

“And” between values parts separate entries of the source, which are not always exact repeats. Equal entries are not always repeated. Where a SMILES comes first, the peptide text is derived from it. [ ]: non-standard residue; d: D form. Dmt = Cc1cc(O)cc(C)c1C[C@H](N)C(=O)O

The subject of one data set is dystrophin. In words: Western blot of dystrophin in tibialis anterior (TA) muscle of treated mdx mice. It counts as in vivo, mouse (C57BL/10ScSn-Dmdmdx/J. To be noted: 7 weeks; for % Dystrophin Average: average of treatment group (n=14-15 mdx mice); for % Dystrophin: individual mdx mouse. The procedure: (§1) Treatment groups. Four-week-old C57BL/10ScSnJ (stock #000476) and C57BL/10ScSn-Dmdmdx/J mice (stock #001801) were sourced from Jackson Laboratory in Bar Harbor, USA and sorted into a total of five treatment groups (Table 1). The C57BL/10ScSnJ (BL10) mice received vehicle #1 (1×PBS) and vehicle #2 (0.9% Saline). Of the C57BL/10ScSn-Dmdmdx/J (mdx) groups, one received vehicle #1(1×PBS) and vehicle #2 (0.9% Saline), the second group was treated with PMO (125 mg/kg) and vehicle #2 (0.9% Saline), the third group was treated with vehicle #1 (1×PSB) and MTP-131 (5 mg/kg), and the final group was treated with both PMO (125 mg/kg) and MTP-131 (5 mg/kg). PMO compound and the respective vehicle (1×PBS) was administered weekly via retro-orbital injection. MTP-131 compound and the vehicle (0.9% saline) were administered daily via intraperitoneal (IP) injection. Treatment was for a total of 7 weeks.
Experimental endpoint measures. Upon arrival from Jackson laboratory to the Life Science Research Institute (LSRI) animal facility in Halifax, Canada, 4 week-old BL10 and mdx mice were subjected to a one-week acclimation period to the new facility, after which they were weighed, ear-tagged, and randomized. Once randomized, the animals were treated daily for 7 weeks. During treatment, mice were visually assessed for health (altered food and water consumption, abnormal breathing, circling, eye/hair matting and any other features of abnormal appearance). All treatment groups followed the experimental design outlined in Table 2. In vitro force measurements and takedowns were performed throughout weeks 6-7. Takedowns were staggered to accommodate the in vitro force schedule. Scheduling was representative of the treatment groups.
Treatment preparation—PMO. The phosphorodiamidate morpholino oligomer (PMO) was sourced from Gene Tools, LLC. The PMO used was mExon 23(+07-18) (5′-[…]-3′) (SEQ ID NO: 1) against the boundary sequences of exon and intron 23 of the mouse dystrophin gene. The PMO was prepared fresh weekly by diluting the compound in 1×PBS to the stock concentration of 100 mg/ml. Any remaining compound was stored at 4° C.
Treatment preparation—MTP-131. MTP-131 dosing formulation was prepared weekly and filtered through a […] polyether sulfone (PES) filter. Because MTP-131 is extremely hygroscopic it was conditioned before use and weighed immediately after. If possible, MTP-131 was weighed in a low moisture environment (<20% RH). Prior to use, MTP-131 was removed from the refrigerator. The un-opened bottle was placed in a low moisture environment (<20% RH) and allowed to equilibrate at room temperature for at least 2 hours. Quickly, an aliquot was weighed for use without returning any un-used standard to the bottle and the bottle was immediately tightly capped. Immediately after use, the inside of the bag was wiped with a paper towel to remove any moisture, and the reference bottle (tightly capped) was placed back into the aluminum bag, re-sealed and placed back in 2-8° C. storage.
Treatment administration—PMO. PMO compound was delivered weekly via retro-orbital intravenous injection using a 28-gauge needle. Mice were gently removed from their cage and anesthetized using 5% isoflurane and maintained with 1.5-2% isoflurane. Once the pedal reflex was absent, the mouse was positioned on its side, and loose skin behind the shoulders and ears pinned back using the thumb and middle finger of the non-dominant hand. The skin surrounding the eye was drawn back using the index finger, allowing the eye to protrude slightly. The needle was inserted carefully at a 30° angle with the bevel away from the eye, lateral to the medial canthus, through the conjunctival membrane. Once in the retro-orbital sinus, the compound was slowly injected (10 μl/5-10 seconds). The needle was then carefully removed to prevent injury and leakage. If more than 20 μl of leakage occurred, the injectable was aspirated back into the syringe and injected again. […]

Data set [1] deals with C57BL/10ScSn-Dmdmdx/J (mdx) mice. Nature of the data set: H&E inflammation analysis of TA muscle sections. Format: in vivo, mouse. The following applies: as compared to the mdx vehicle group; PMO 125 mg/kg, MTP-131 5 mg/kg. The method, then:
as §1
Histological analysis—H&E—Inflammation Analysis. TA muscle (n=8/group) was sectioned at 10 μm (2 sections/slide) and stored at −80° C. until the staining was performed. Slides were stained with Hematoxylin & Eosin (H&E) and were analyzed for percent inflammation. An inflammatory focus (pl. foci) was measured by counting 10 or more inflammatory cells in a single cluster. These foci areas were measured in mm2 and then compared to the tissue's total area, from which a percentage was calculated. […]

Where [2] appears, read: PMO 125 mg/kg weekly, MTP-131 5 mg/kg daily.
The mark [3] stands for this setting: Run 1, Gel #5, PMO 125 mg/kg weekly retro-orbital, MTP-131 5 mg/kg daily IP.
Where [4] appears, read: Run 1, Gel #6, PMO 125 mg/kg weekly, MTP-131 5 mg/kg daily.
The mark [5] stands for this setting: Run 2, Gel #7, PMO 125 mg/kg weekly, MTP-131 5 mg/kg daily.
Where [6] appears, read: Run 2, Gel #8, PMO 125 mg/kg weekly, MTP-131 5 mg/kg daily.
The mark [7] stands for this setting: Run 3, Gel #9, PMO 125 mg/kg weekly, MTP-131 5 mg/kg daily.
Where [8] appears, read: Run 3, Gel #10, PMO 125 mg/kg weekly, MTP-131 5 mg/kg daily.

Regarding `Cc1cc(O)cc(C)c1C[C@H](NC(=O)[C@H](N)CCCNC(=N)N)C(=O)N[C@@H](CCCCN)C(=O)N[C@@H](Cc1ccccc1)C(N)=O` [MTP-131, H-D-Arg-2′6′-Dmt-Lys-Phe-NH2] (H-[dR][Dmt]KF-NH2), the “% Dystrophin Average” value in the data set with dystrophin (setting [2]) was 0.70%. The “% Dystrophin” value with dystrophin (setting [3]) is 0.3% and 0.4% and 0.6%; with dystrophin (setting [4]), 1.0% and 1.2%; in the data set with dystrophin (setting [5]) it was 0.8%; in the data set with dystrophin (setting [6]), 0.8%; in the data set on dystrophin (setting [7]), 1.0%; with dystrophin (setting [8]), 0%. In addition, the “% Dystrophin” value with dystrophin (summary by treatment group, PMO 125 mg/kg weekly, MTP-131 5 mg/kg daily) was 1.00% (3×) and 1.10% and 0.00% (2×) and 0.80% (4×) and 0.30% and 0.40% and 0.60% and 1.20%. In data set [1], the “inflammation in the tibialis anterior muscles” value was “reduced”.
For the compound “PMO: phosphorodiamidate morpholino oligomer mExon 23(+07-18), 5′-GGCCAAACCTCGGCTTACCTGAAAT-3′ (SEQ ID NO: 1), against exon/intron 23 boundary of mouse dystrophin gene; Gene Tools (all phosphorodiamidate morpholino (PMO)) [reference compound]”, the “% Dystrophin Average” value in the data set with dystrophin (setting [2]) was found to be 3.66%. The “% Dystrophin” value is 6.0% and 4.2% in the data set with dystrophin (setting [3]); 4.7% and 2.7% in the data set with dystrophin (setting [4]); 1.2% and 1.7% and 7.4% in the data set with dystrophin (setting [5]); 3.2% and 1.4% with dystrophin (setting [6]); 1.4% and 3.9% in the data set on dystrophin (setting [7]); 3.1% and 2.9% and 7.2% with dystrophin (setting [8]). Besides, the “inflammation in the tibialis anterior muscles” value in data set [1] is “reduced”.
